Reference: article PMC11200976, “Pitavastatin Calcium Confers Fungicidal Properties to Fluconazole by Inhibiting Ubiquinone Biosynthesis and Generating Reactive Oxygen Species” (Antioxidants, 2024)
Counter-ions that a name gives are not always drawn.

Tested on: C. albicans
Assay: Broth microdilution assay of synergistic lethality with 4 μg/mL FLC (recovery on drug-free YPD)
Type: cell-based, Candida albicans
Conditions: concentration of the compound that is synergistically lethal with 4 μg/mL FLC; C. albicans; recovery on drug-free YPD

SMILES	Synergistic lethal concentrations [µM]
CC(C(=O)[O-])c1cccc(Oc2ccccc2)c1.CC(C(=O)[O-])c1cccc(Oc2ccccc2)c1.O.O.[Ca+2] (stereo not drawn) [Fenoprofen (Calcium hydrate)]	100
O=C(O)c1ccccc1Nc1cccc(C(F)(F)F)c1 [Flufenamic acid]	100
Cl.Cl.Fc1ccc(C(c2ccc(F)cc2)N2CCN(C/C=C/c3ccccc3)CC2)cc1 [Flunarizine (dihydrochloride)]	50
CC(C)n1c(/C=C/C(O)CC(O)CC(=O)[O-])c(-c2ccc(F)cc2)c2ccccc21.[Na+] (stereo not drawn) [Fluvastatin (sodium)]	6.25
COCCCC/C(=N\OCCN)c1ccc(C(F)(F)F)cc1.O=C(O)/C=C\C(=O)O [Fluvoxamine (maleate)]	100
O=C(CCCN1CCC(O)(c2ccc(Cl)cc2)CC1)c1ccc(F)cc1 [Haloperidol]	100
CCCCCCc1ccc(O)cc1O [Hexylresorcinol]	12.5
Cl.Cl.OCCOCCN1CCN(C(c2ccccc2)c2ccc(Cl)cc2)CC1 (stereo not drawn) [Hydroxyzine (dihydrochloride)]	100
O=C(O)c1cc2ccccc2c(Cc2c(O)c(C(=O)O)cc3ccccc23)c1O.OCCOCCN1CCN(C(c2ccccc2)c2ccc(Cl)cc2)CC1 [Hydroxyzine (pamoate)]	100
COc1ccc2c(c1)c(CC(=O)O)c(C)n2C(=O)c1ccc(Cl)cc1 [Indomethacin]	100
C/C=C(/C)C(=O)O[C@H]1C(C)=C[C@]23C(=O)[C@@H](C=C(CO)[C@@H](O)[C@]12O)[C@H]1[C@@H](C[C@H]3C)C1(C)C [Ingenol Mebutate]	100
COC(=O)N[C@H](C(=O)N1CC2(CC2)C[C@H]1c1nc(-c2ccc3c(c2)C(F)(F)c2cc(-c4ccc5[nH]c([C@@H]6[C@H]7CC[C@H](C7)N6C(=O)[C@@H](NC(=O)OC)C(C)C)nc5c4)ccc2-3)c[nH]1)C(C)C [Ledipasvir]	100
CCOC(=O)C1=C(COCCN)NC(C)=C(C(=O)OC)[C@@H]1c1ccccc1Cl.O=S(=O)(O)c1ccccc1 [Levamlodipine besylate]	100
O=C(NC1CCN(CCCCC2(C(=O)NCC(F)(F)F)c3ccccc3-c3ccccc32)CC1)c1ccccc1-c1ccc(C(F)(F)F)cc1 [Lomitapide]	6.25
CC[C@H](C)C(=O)O[C@H]1C[C@@H](C)C=C2C=C[C@H](C)[C@H](CC[C@@H]3C[C@@H](O)CC(=O)O3)[C@H]21 [Lovastatin]	100
CN1CCN(C2=Nc3ccccc3Oc3ccc(Cl)cc32)CC1 [Loxapine]	100
C=CCc1ccc(O)c(-c2cc(CC=C)ccc2O)c1 [Magnolol]	12.5
CNCCCC12CCC(c3ccccc31)c1ccccc12.Cl [Maprotiline (hydrochloride)]	50
CN1CCc2c(c3ccccc3n2Cc2ccccc2)C1.CN1CCc2c(c3ccccc3n2Cc2ccccc2)C1.O=S(=O)(O)c1cccc2c(S(=O)(=O)O)cccc12 [Mebhydrolin (napadisylate)]	100
CN1CCc2c(c3ccccc3n2Cc2ccccc2)C1 [Mebhydrolin]	100
Cl.OC(c1cc(C(F)(F)F)nc2c(C(F)(F)F)cccc12)C1CCCCN1 (stereo not drawn) [Mefloquine (hydrochloride)]	25

SMILES	Synergistic lethal concentrations [µM]
CN(C)CCC=C1c2ccccc2C(C)(C)c2ccccc21.Cl [Melitracen (hydrochloride)]	50
CC1=CC(=O)c2ccccc2C1=O [Menadione]	100
c1ccc2c(c1)Sc1ccccc1N2CC1CN2CCC1CC2 (stereo not drawn) [Mequitazine]	25
CN1C[C@H](CNC(=O)OCc2ccccc2)C[C@@H]2c3cccc4c3c(cn4C)C[C@H]21 [Metergoline]	100
CN1CCCC(CC2c3ccccc3Sc3ccccc32)C1.Cl.O (stereo not drawn) [Metixene hydrochloride hydrate]	25
CCCCCCCCCCCCCCCCOP(=O)([O-])OCC[N+](C)(C)C [Miltefosine]	100
CCCOc1ccc(S(=O)(=O)N2CCN(CCO)CC2)cc1-c1nc2c(CCC)cn(CC)c2c(=O)[nH]1.Cl.Cl [Mirodenafil (dihydrochloride)]	100
NC(=O)Cc1cccc(C(=O)c2ccccc2)c1N [Nepafenac]	100
COC(=O)C1=C(C#N)NC(C)=C(C(=O)OC(C)C)C1c1cccc([N+](=O)[O-])c1 (stereo not drawn) [Nilvadipine]	100
COC(=O)c1ccc2c(c1)NC(=O)/C2=C(\Nc1ccc(N(C)C(=O)CN2CCN(C)CC2)cc1)c1ccccc1 [Nintedanib]	100
CNCCC=C1c2ccccc2CCc2ccccc21.Cl [Nortriptyline (hydrochloride)]	100
CCCCCCCCN=c1ccn(CCCCCCCCCCn2ccc(=NCCCCCCCC)cc2)cc1.Cl.Cl [Octenidine (dihydrochloride)]	1.5625
C=CC(=O)Nc1cccc(Oc2nc(Nc3ccc(N4CCN(C)CC4)cc3)nc3ccsc23)c1 [Olmutinib]	100
C=CC(=O)Nc1cc(Nc2nccc(-c3cn(C)c4ccccc34)n2)c(OC)cc1N(C)CCN(C)C.CS(=O)(=O)O.CS(=O)(=O)O [Osimertinib (dimesylate)]	100
C=CC(=O)Nc1cc(Nc2nccc(-c3cn(C)c4ccccc34)n2)c(OC)cc1N(C)CCN(C)C.CS(=O)(=O)O [Osimertinib mesylate]	50
C=CC(=O)Nc1cc(Nc2nccc(-c3cn(C)c4ccccc34)n2)c(OC)cc1N(C)CCN(C)C [Osimertinib]	100
CCCCCCCCOc1ccccc1C(=O)Nc1ccc(C(=O)OCC[N+](C)(CC)CC)cc1.[Br-] [Otilonium (bromide)]	6.25
O=C(O)CCc1nc(-c2ccccc2)c(-c2ccccc2)o1 [Oxaprozin]	100
CN(C(=O)CN(CCO)CC(=O)N(C)C(C)(C)Cc1ccccc1)C(C)(C)Cc1ccccc1 [Oxethazaine]	50
Cc1[nH]c2ccccc2c1CCNCc1ccc(/C=C/C(=O)NO)cc1 [Panobinostat]	100
Cl.Fc1ccc([C@@H]2CCNC[C@H]2COc2ccc3c(c2)OCO3)cc1 [Paroxetine (hydrochloride)]	50

SMILES	Synergistic lethal concentrations [µM]
C1CCC(C(CC2CCCCN2)C2CCCCC2)CC1 (stereo not drawn) [Perhexiline maleate]	50
N#Cc1ccc2c(c1)N(CCCN1CCC(O)CC1)c1ccccc1S2 [Pericyazine]	100
OCCN1CCN(CCCN2c3ccccc3Sc3ccc(Cl)cc32)CC1 [Perphenazine]	25
CN1CCC(=C2c3ccccc3Sc3ccccc32)CC1 [Pimethixene maleate]	12.5
Cc1cc(CC(C)CC(C)(C)C)n(O)c(=O)c1.NCCO (stereo not drawn) [Piroctone olamine]	100
O=C([O-])C[C@H](O)C[C@H](O)/C=C/c1c(C2CC2)nc2ccccc2c1-c1ccc(F)cc1.O=C([O-])C[C@H](O)C[C@H](O)/C=C/c1c(C2CC2)nc2ccccc2c1-c1ccc(F)cc1.[Ca+2] [Pitavastatin (Calcium)]	1.5625
CN1CCC(=C2c3ccccc3CCc3sccc32)CC1 [Pizotifen]	100
Cc1ccc(C(=O)Nc2ccc(CN3CCN(C)CC3)c(C(F)(F)F)c2)cc1C#Cc1cnc2cccnn12 [Ponatinib]	100
CO[C@]1(C(=O)N[C@@H](C)c2ccc(-n3cc(F)cn3)nc2)CC[C@H](c2nc(C)cc(Nc3cc(C)[nH]n3)n2)CC1 [Pralsetinib]	100
CCCCOc1ccc(OCCCN2CCOCC2)cc1.Cl [Pramocaine (hydrochloride)]	100
[H]/N=C(\N/C(=N/[H])Nc1ccc(Cl)cc1)NC(C)C [Proguanil]	100
CNCCCC1c2ccccc2C=Cc2ccccc21.Cl [Protriptyline (hydrochloride)]	100
O=C(O)/C=C/C(=O)O.OCCOCCN1CCN(C2=Nc3ccccc3Sc3ccccc32)CC1.OCCOCCN1CCN(C2=Nc3ccccc3Sc3ccccc32)CC1 [Quetiapine (hemifumarate)]	100
OCCOCCN1CCN(C2=Nc3ccccc3Sc3ccccc32)CC1 [Quetiapine]	100
CC(C)(C)c1cc(NC(=O)Nc2ccc(-c3cn4c(n3)sc3cc(OCCN5CCOCC5)ccc34)cc2)no1 [Quizartinib]	6.25
COC(=O)[C@H]1[C@H]2C[C@@H]3c4[nH]c5cc(OC)ccc5c4CCN3C[C@H]2C[C@@H](OC(=O)c2cc(OC)c(OC)c(OC)c2)[C@@H]1OC.Cl [Reserpine (hydrochloride)]	100
COC(=O)[C@H]1[C@H]2C[C@@H]3c4[nH]c5cc(OC)ccc5c4CCN3C[C@H]2C[C@@H](OC(=O)c2cc(OC)c(OC)c(OC)c2)[C@@H]1OC [Reserpine]	50
C[C@@H](OC[C@@]1(c2ccccc2)CC[C@]2(CCC(=O)N2)CN1)c1cc(C(F)(F)F)cc(C(F)(F)F)c1 [Rolapitant]	12.5
CC(C)c1nc(N(C)S(C)(=O)=O)nc(-c2ccc(F)cc2)c1/C=C/[C@@H](O)C[C@@H](O)CC(=O)[O-].CC(C)c1nc(N(C)S(C)(=O)=O)nc(-c2ccc(F)cc2)c1/C=C/[C@@H](O)C[C@@H](O)CC(=O)[O-].[Ca+2] [Rosuvastatin (Calcium)]	50
OCc1cc(C(O)CNCCCCCCOCCCCc2ccccc2)ccc1O (stereo not drawn) [Salmeterol]	100
CC(C)(C)NC(=O)[C@@H]1C[C@@H]2CCCC[C@@H]2CN1C[C@@H](O)[C@H](Cc1ccccc1)NC(=O)[C@H](CC(N)=O)NC(=O)c1ccc2ccccc2n1 [Saquinavir]	50
